Consider one molecule from patent US9237750B2, “Ornidazole and related compounds for use as herbicides” (RAMOT AT TEL-AVIV UNIVERSITY LTD., priority 2012, dated 2016).

Each structure is given as a SMILES string.

Assay [1] has as its system Anabaena PCC7120. Put plainly: Growth of cyanobacterium determined by chlorophyll concentration. Type of assay: cell-based. On the procedure: Cyanobacteria were grown in BG11 medium under 30 μmol photons m^−2 sec^−1 at 30° C. in the presence of the indicated concentration of Ornidazole.
(§1) The cyanobacterium Anabaena PCC7120 was grown in BG-11 medium as was previously described (Marcus Y, et al., 2005. J Bacteriol 187, 4222-4228). The green eukaryotic alga Dunaliella salina was grown on a medium described by Ben-Amotz and Avron (Ben-Amotz A and Avron M 1983. Plant Physiol 72, 593-597), under 20 μmol photons m^−2 sec^−1 at 30° C. The aquatic plant Lemna was collected from an open pond at the Botanical garden of Tel Aviv University. Seedlings of Avena sterilis were grown in pots in a greenhouse. The marine diatom Phaeodactylum tricornutum was grown as described in Haimovich-Dayan et al. (Haimovich-Dayan M. et al. 2012. New Phytol 195:177-185).
The effect of Ornidazole on the growth of the cyanobacterium Anabaena PCC7120 was examined by determining the chlorophyll concentration. The algae were grown in BG-11 medium as described herein above. […] One mM Ornidazole in the medium caused a decrease in chlorophyll concentration to 1% of its original concentration after three days of such incubation (FIG. 1).

The target in assay [2] is T1, Triose phosphate isomerase (Nostoc sp., UniProt Q8YP17).
T1 sequence (Q8YP17 1-241): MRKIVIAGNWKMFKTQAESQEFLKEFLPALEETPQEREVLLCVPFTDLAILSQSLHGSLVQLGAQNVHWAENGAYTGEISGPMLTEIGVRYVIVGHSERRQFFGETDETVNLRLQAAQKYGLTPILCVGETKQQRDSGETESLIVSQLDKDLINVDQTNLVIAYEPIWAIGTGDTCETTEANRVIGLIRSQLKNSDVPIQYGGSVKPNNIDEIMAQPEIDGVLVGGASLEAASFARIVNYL
The experiment in a line: Calvin cycle enzyme activity. In kind it is biochemical, Anabaena. Set-up: endogenous in cells; host or cells: Anabaena PCC7120 extract. Conditions: 1 mM Ornidazole. On the procedure: Rubisco was assayed as described by Marcus et al. (2005, ibid) and Snir et al. (2006, ibid). Phospho-ribulose kinase was assayed by conversion of phospho-ribulose to RuBP, which was determined by Rubisco dependent carboxylation with radiolabeled ^14CO2. Plant or cyanobacterial extract was incubated with medium containing 50 mM Hepes pH 8, 10 mM MgCl2, 20 mM NaH^14CO3, 1 mM DTT, 0.5 mM ribose-5-phosphate, ribose-5-phosphate isomerase and activated Rubisco. Phosphoglycerate kinase, GAPDH, FBPase and SBPase were determined as described by Leegood (Leegood R C., 1990. In: Methods in plant biochemistry, Vol 3, pp 15-37, Academic Press).
However, analysis of Ornidazole effect on various enzymes of the Calvin cycle in Anabaena including ribulose-bisphosphate carboxylase/oxygenase (Rubisco), phosphoglycerate kinase, glyceraldehyde-3-phosphate dehydrogenase (GAPDH), triose-phosphate isomerase, aldolase, fructose and sedoheptulose bisphosphatase and phosphoribulose kinase, has shown inhibition of GAPDH and triose-phosphate isomerase (Table 2).

Assay [3] concerns the target T1, Triose phosphate isomerase. The experiment in a line: Enzyme activity in lysed Anabaena spheroplasts treated with 0 to 2 mM Ornidazole. Type of assay: cell-based, Anabaena PCC7120. Set-up: endogenous in cells; host or cells: Anabaena PCC7120 spheroplasts, lysed after treatment. Conditions: 30° C. On the procedure:
Filaments of Anabaena PCC7120 were incubated in a medium containing: 0.5 M sucrose, 10 mM MgCl2, 5 mM Potassium Phosphate, 10 mM MES buffer pH 6.9, 1% (weight/volume) BSA and 1 mg/ml Lysozyme for 30 to 60 min. at 30° C. The spheroplasts yield was monitored by lysis in hypotonic solution. The spheroplasts were spun down and resuspended in a medium containing 0.4 M Mannitol, 10 mM MgCl2, 5 mM Potassium Phosphate and 20 mM Hepes buffer pH 8.0.
To further examine the effect of Ornidazole on these enzymes, the rate of photosynthesis of Anabaena spheroplasts, incubated in a spheroplast medium under saturating light intensity and CO2 concentrations in the presence of 0 to 2 mM Ornidazole at 30° C. was determined, using an O2 electrode. GAPDH and triose-phosphate isomerase activities were determined spectrophotometrically in the spheroplasts upon lysis (200 to 300 μg chlorophyll) using a reaction medium as described in the Materials and Methods section hereinabove.
A clear correlation was found between the reduced activity of triose phosphate isomerase and the declined rate of photosynthesis.

Assay [4] has as its system Phaeodactylum tricornutum. Put plainly: Net O2 exchange (photosynthesis and respiration), O2 electrode. Type of assay: cell-based, Phaeodactylum tricornutum (Diatoms). On the procedure: as §1
(§2) The rate of net O2 exchange was determined using a Clark-type O2 electrode (Rank Brothers Ltd, UK). Fluorescent measurements (quantum yield, photochemical and non photochemical quenching) were determined using a modulated fluorometer (PAM, Walz, Germany) as described by Schreiber et al. (Schreiber U et al., 1986. fluorometer. Photosynth Res 10, 51-62) and Snir et al. (Snir A, et al., 2006. Photosynth Res 90, 233-242).
(§3) The algae Anabaena PCC7120 (Cyanobacteria), Dunaliella salina (Chlorophyta) and Phaeodactylum tricornutum (Diatoms) were each grown in its suitable medium as described hereinabove towards the mid logarithmic phase. 1 mM Ornidazole was then added to the medium for 5 min, and respiration and photosynthesis were measured for at least 10 min.

The test system of assay [5] is Dunaliella salina. Described as above. Type of assay: cell-based, Dunaliella salina (Chlorophyta). As for the experimental part: as §1, §2, §3
Assay [6] deals with glyceraldehyde-3-phosphate dehydrogenase (GAPDH) (Homo sapiens, UniProt P04406). Conditions: glycolytic GAPDH; cited from earlier work.
glyceraldehyde-3-phosphate dehydrogenase (GAPDH), sequence (P04406 whole entry, species assumed): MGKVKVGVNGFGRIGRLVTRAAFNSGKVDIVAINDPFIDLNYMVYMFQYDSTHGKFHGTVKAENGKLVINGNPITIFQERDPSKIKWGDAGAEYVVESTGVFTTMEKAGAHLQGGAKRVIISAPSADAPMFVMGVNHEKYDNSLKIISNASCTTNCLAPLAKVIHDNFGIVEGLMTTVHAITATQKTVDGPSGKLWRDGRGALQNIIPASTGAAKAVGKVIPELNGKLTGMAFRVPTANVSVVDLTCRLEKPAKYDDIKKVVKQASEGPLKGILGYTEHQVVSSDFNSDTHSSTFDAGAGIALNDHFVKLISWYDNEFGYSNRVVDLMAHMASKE
Assay [7] has as its system Anabaena PCC7120. The experiment in a line: Net O2 exchange (photosynthesis and respiration), O2 electrode. Type of assay: cell-based, Anabaena PCC7120 (Cyanobacteria). On the procedure:
as §1, §2, §3
The effect of Ornidazole on the rate of photosynthesis of Anabaena was also determined. The algae were grown under various light intensities and saturating inorganic carbon (Ci) concentration, or under various Ci concentrations and saturating irradiance.

Where [8] appears, read: Phaeodactylum tricornutum, 1 mM Ornidazole added for 5 min.
Setting [9] is: Dunaliella salina, 1 mM Ornidazole added for 5 min.
[10] abbreviates: Anabaena PCC7120, 1 mM Ornidazole added for 5 min.

As for `Cc1ncc([N+](=O)[O-])n1CC(O)CCl` (centres unmarked) [Ornidazole, 1-chloro-3-(2-methyl-5-nitro-1H-imidazol-1-yl)propan-2-ol], in assay [1] (250 μM Ornidazole in BG-11 medium), the effect on growth entry was “stopped the growth and stimulated chlorosis”. The “chlorophyll concentration relative to original concentration” value in assay [1] (1 mM Ornidazole in the medium, after three days) was 1%. Also, the Activity in assay [2] (Triose phosphate isomerase) is given as 0 μmol × mg^−1chl × h^−1. Also, the inhibition at 1000 µM in assay [2] (triose-phosphate isomerase) is 98 to 100%; in assay [5] (Dunaliella salina, Dunaliella, 1 mM, read-out: inhibition of respiration rate) it was 30 to 35%; in assay [7] (Anabaena, 1 mM, read-out: inhibition of respiration rate), 30 to 35%. Besides, the “inhibition of triose phosphate isomerase compared to GAPDH” value in assay [3] was “inhibited at lower concentrations of Ornidazole and in a concentration-dependent manner”. In addition, the Photosynthesis in assay [4] (setting [8]) was −4.33 μmol O2 mg^−1 chl h^−1; in assay [5] (setting [9]) it was 17.88 μmol O2 mg^−1 chl h^−1; in assay [7] (setting [10]) it was −3.7 μmol O2 mg^−1 chl h^−1. The Respiration in assay [4] (setting [8]) is −67.14 μmol O2 mg^−1 chl h^−1; in assay [5] (setting [9]), −3.13 μmol O2 mg^−1 chl h^−1; in assay [7] (setting [10]), −26.5 μmol O2 mg^−1 chl h^−1. Besides, the “effect on respiration rate” value in assay [4] (Phaeodactylum, 1 mM) is “stimulated the respiration rate”. For the same molecule, the effect on photosynthesis entry in assay [4] (Phaeodactylum, higher concentrations (than 1 mM) or longer incubation time) is on record as “abolished photosynthesis”; in assay [5] (Dunaliella, higher concentrations (than 1 mM) or longer incubation time), “abolished photosynthesis”; in assay [7] (Anabaena, higher concentrations (than 1 mM) or longer incubation time), “abolished photosynthesis”. The “inhibition of enzyme activity” value in assay [6] was “inhibits the activity”. The “effect on photosynthetic rate” value in assay [7] (limiting irradiance) is listed as “inhibited the photosynthetic rate to a lesser extent”; in assay [7] (saturating irradiance at any Ci concentration), “concentration-dependent decrease in the photosynthetic rate”.
